In patent publication US20220313698A1, “MODULATORS OF CYSTIC FIBROSIS TRANSMEMBRANE CONDUCTANCE REGULATOR” (Vertex Pharmaceuticals Incorporated, priority 2019, published 2022):

Molecular target: CFTR-mediated chloride transport (Homo sapiens, UniProt P13569)
Assay: Corrector Assay A - membrane potential dye assay (enteroid cells)
Details: for Corrector Assay A % activity: % of chloride transport of triple combination control (1 μM (14S)-dispiro macrocycle + 3 μM tezacaftor + 300 nM ivacaftor); for EC50: read-out: Corrector Assay A EC50, human intestinal enteroid cells, 18-24 h incubation, acute 10 μM forskolin + 300 nM ivacaftor
Protocol: Base medium (ADF+++) consisted of Advanced DMEM/Ham's F12, 2 mM Glutamax, 10 mM HEPES, 1 μg/ml penicillin/streptomycin.
Intestinal enteroid maintenance medium (IEMM) consisted of ADF+++, 1×B27 supplement, 1×N2 supplement, 1.25 mM N-acetyl cysteine, 10 mM Nicotinamide, 50 ng/mL hEGF, 10 nM Gastrin, 1 μg/mL hR-spondin-1, 100 ng/mL hNoggin, TGF-b type 1 inhibitor A-83-01, 100 μg/mL Primocin, 10 μM P38 MAPK inhibitor SB202190.
Bath 1 Buffer consisted of 1 mM MgCl2, 160 mM NaCl, 4.5 mM KCl, 10 mM HEPES, 10 mM Glucose, 2 mM CaCl2).
Chloride Free Buffer consisted of 1 mM Magnesium Gluconate, 2 mM Calcium Gluconate, 4.5 mM Potassium Gluconate, 160 mM Sodium Gluconate, 10 mM HEPES, 10 mM Glucose.
Bath 1 Dye Solution consisted of Bath 1 Buffer, 0.04% Pluronic F127, 20 μM Methyl Oxonol, 30 μM CaCCinh-A01, 30 μM Chicago Sky Blue.
Chloride Free Dye Solution consisted of Chloride Free Buffer, 0.04% Pluronic F127, 20 μM Methyl Oxonol, 30 μM CaCCinh-A01, 30 μM Chicago Sky Blue.
Chloride Free Dye Stimulation Solution consisted of Chloride Free Dye Solution, 10 μM forskolin, 100 μM IBMX, and 300 nM Ivacaftor.
Cells were recovered in cell recovery solution, collected by centrifugation at 650 rpm for 5 min at 4° C., resuspended in TryPLE and incubated for 5 min at 37° C. Cells were then collected by centrifugation at 650 rpm for 5 min at 4° C. and resuspended in IEMM containing 10 μM ROCK inhibitor (RI). The cell suspension was passed through a 40 μm cell strainer and resuspended at 1×10^6 cells/mL in IEMM containing 10 μM RI. Cells were seeded at 5000 cells/well into multi-well plates and incubated for overnight at 37° C., 95% humidity and 5% CO2 prior to assay.
Briefly, cells were washed 5 times in Bath 1 Buffer. Bath 1 Dye Solution was added and the cells were incubated for 25 min at room temperature. Following dye incubation, cells were washed 3 times in Chloride Free Dye Solution. Chloride transport was initiated by addition of Chloride Free Dye Stimulation Solution and the fluorescence signal was read for 15 min. The CFTR-mediated chloride transport for each condition was determined from the AUC of the fluorescence response to acute forskolin and 300 nM N-[2,4-bis(1,1-dimethylethyl)-5-hydroxyphenyl]-1,4-dihydro-4-oxoquinoline-3-carboxamide stimulation. Chloride transport was then expressed as a percentage of the chloride transport following treatment with 1 μM (14S)-8-[3-(2-{Dispiro[2.0.2.1]heptan-7-yl}ethoxy)-1H-pyrazol-1-yl]-12,12-dimethyl-2λ^6-thia-3,9,11,18,23-pentaazatetracyclo[17.3.1.111,14.05,10]tetracosa-1(22),5,7,9,19(23),20-hexaene-2,2,4-trione, 3 μM (R)-1-(2,2-difluorobenzo[d][1,3]dioxol-5-yl)-N-(1-(2,3-dihydroxypropyl)-6-fluoro-2-(1-hydroxy-2-methylpropan-2-yl)-1H-indol-5-yl)cyclopropanecarboxamide and 300 nM acute N-[2,4-bis(1,1-dimethylethyl)-5-hydroxyphenyl]-1,4-dihydro-4-oxoquinoline-3-carboxamide triple combination control (% Activity).

Corrector Assay A % activity | EC50 | SMILES
++ (++ is 30-60%) | < 1000 nM | CC(C)Cc1ccc(C2CC[C@@H]3CN(c4nc(C(C)(C)C)ccc4C(=O)NS(=O)(=O)c4cccc(n4)N2)C(C)(C)C3)nc1 (stereo partly drawn) [Compound 181, (14S)-8-tert-butyl-12,12-dimethyl-17-[5-(2-methylpropyl)pyridin-2-yl]-2λ^6-thia-3,9,11,18,23-pentaazatetracyclo[17.3.1.111,14.05,10]tetracosa-1(23),5(10),6,8,19,21-hexaene-2,2,4-trione]
+++ (+++ is >60%) | < 1000 nM | CC(C)=Cc1ccc(C2CC[C@@H]3CN(c4nc(C(C)(C)C)ccc4C(=O)NS(=O)(=O)c4cccc(n4)N2)C(C)(C)C3)nc1 (some centres unmarked) [Compound 182]
++ (++ is 30-60%) | < 1000 nM | CC(C)=Cc1ccc(C2CC[C@@H]3CN(c4nc(C(C)(C)C)ccc4C(=O)NS(=O)(=O)c4cccc(n4)N2)C(C)(C)C3)nc1 (stereo partly drawn) [Compound 183, (14S)-8-tert-Butyl-12,12-dimethyl-17-[5-(2-methylprop-1-en-1-yl)pyridin-2-yl]-2λ^6-thia-3,9,11,18,23-pentaazatetracyclo[17.3.1.111,14.05,10]tetracosa-1(23),5(10),6,8,19,21-hexaene-2,2,4-trione]
+++ (+++ is >60%) | < 1000 nM | CC(C)(C)c1ccc2c(n1)N1C[C@@H](CCC(c3ccc(N4CCCCC4)cn3)Nc3cccc(n3)S(=O)(=O)NC2=O)CC1(C)C (some centres unmarked) [Compound 184]
++ (++ is 30-60%) | < 1000 nM | CC(C)(C)c1ccc2c(n1)N1C[C@@H](CCC(c3ccc(N4CCCCC4)cn3)Nc3cccc(n3)S(=O)(=O)NC2=O)CC1(C)C (some centres unmarked) [Compound 185]
++ (++ is 30-60%) | < 1000 nM | CN(C)CCNc1cccc([C@@H]2CC[C@@H]3CN(c4nc(C(C)(C)C)ccc4C(=O)NS(=O)(=O)c4cccc(n4)N2)C(C)(C)C3)n1 [Compound 188]
++ (++ is 30-60%) | < 1000 nM | CN(C)CCNc1cccc([C@H]2CC[C@@H]3CN(c4nc(C(C)(C)C)ccc4C(=O)NS(=O)(=O)c4cccc(n4)N2)C(C)(C)C3)n1 [Compound 189]
++ (++ is 30-60%) | < 1000 nM | CC(C)(C)c1ccc2c(n1)N1C[C@@H](CC[C@@H](c3cccc(N4CCOCC4)n3)Nc3cccc(n3)S(=O)(=O)NC2=O)CC1(C)C [Compound 190]
+++ (+++ is >60%) | < 1000 nM | CC(C)(C)c1ccc2c(n1)N1C[C@@H](CC[C@H](c3cccc(N4CCOCC4)n3)Nc3cccc(n3)S(=O)(=O)NC2=O)CC1(C)C [Compound 191]
+ (+ is <30%) | 1000 to 3000 nM | CC1(C)C[C@@H]2CC[C@@H](c3ccccn3)Nc3cccc(n3)S(=O)(=O)NC(=O)c3ccc(C#N)nc3N1C2 [Compound 192]
+++ (+++ is >60%) | > 3000 nM | CC1(C)C[C@@H]2CC[C@H](c3ccccn3)Nc3cccc(n3)S(=O)(=O)NC(=O)c3ccc(C#N)nc3N1C2 [Compound 193, (14S,17R)-12,12-dimethyl-2,2,4-trioxo-17-(pyridin-2-yl)-2λ^6-thia-3,9,11,18,23-pentaazatetracyclo[17.3.1.111,14.05,10]tetracosa-1(22),5,7,9,19(23),20-hexaene-8-carbonitrile]
++ (++ is 30-60%) | < 1000 nM | CN1CCN(c2cccc([C@@H]3CC[C@@H]4CN(c5nc(C(C)(C)C)ccc5C(=O)NS(=O)(=O)c5cccc(n5)N3)C(C)(C)C4)n2)CC1 [Compound 194]
+++ (+++ is >60%) | < 1000 nM | CN1CCN(c2cccc([C@H]3CC[C@@H]4CN(c5nc(C(C)(C)C)ccc5C(=O)NS(=O)(=O)c5cccc(n5)N3)C(C)(C)C4)n2)CC1 [Compound 195, (14S,17R)-8-tert-butyl-12,12-dimethyl-17-[6-(4-methylpiperazin-1-yl)pyridin-2-yl]-2λ^6-thia-3,9,11,18,23-pentaazatetracyclo[17.3.1.111,14.05,10]tetracosa-1(22),5,7,9,19(23),20-hexaene-2,2,4-trione]
+++ (+++ is >60%) | < 1000 nM | CC(C)(C)c1ccc2c(n1)N1C[C@@H](CCC(c3ccc(CN)cn3)Nc3cccc(n3)S(=O)(=O)NC2=O)CC1(C)C (some centres unmarked) [Compound 196]
+++ (+++ is >60%) | < 1000 nM | CC(C)(C)c1ccc2c(n1)N1C[C@@H](CCC(c3ccc(N4CCOCC4)cn3)Nc3cccc(n3)S(=O)(=O)NC2=O)CC1(C)C (some centres unmarked) [Compound 198]
+++ (+++ is >60%) | < 1000 nM | CC(C)(C)c1ccc2c(n1)N1C[C@@H](CCC(c3ccc(N4CCOCC4)cn3)Nc3cccc(n3)S(=O)(=O)NC2=O)CC1(C)C (some centres unmarked) [Compound 199]
+++ (+++ is >60%) | < 1000 nM | CN1CCN(c2ccc(C3CC[C@@H]4CN(c5nc(C(C)(C)C)ccc5C(=O)NS(=O)(=O)c5cccc(n5)N3)C(C)(C)C4)nc2)CC1 (some centres unmarked) [Compound 200]
+++ (+++ is >60%) | < 1000 nM | CN1CCN(c2ccc(C3CC[C@@H]4CN(c5nc(C(C)(C)C)ccc5C(=O)NS(=O)(=O)c5cccc(n5)N3)C(C)(C)C4)nc2)CC1 (stereo partly drawn) [Compound 201, (14S)-8-tert-butyl-12,12-dimethyl-17-[5-(4-methylpiperazin-1-yl)pyridin-2-yl]-2λ^6-thia-3,9,11,18,23-pentaazatetracyclo[17.3.1.111,14.05,10]tetracosa-1(23),5(10),6,8,19,21-hexaene-2,2,4-trione]
++ (++ is 30-60%) | < 1000 nM | CC(C)(C)c1ccc2c(n1)N1C[C@@H](CC[C@@H](c3cccc(CN)n3)Nc3cccc(n3)S(=O)(=O)NC2=O)CC1(C)C [Compound 202]
+++ (+++ is >60%) | < 1000 nM | CC(C)(C)c1ccc2c(n1)N1C[C@@H](CC[C@H](c3cccc(CN)n3)Nc3cccc(n3)S(=O)(=O)NC2=O)CC1(C)C [Compound 203, (14S,17R)-17-[6-(aminomethyl)pyridin-2-yl]-8-tert-butyl-12,12-dimethyl-2λ^6-thia-3,9,11,18,23-pentaazatetracyclo[17.3.1.111,14.05,10]tetracosa-1(22),5,7,9,19(23),20-hexaene-2,2,4-trione]
+++ (+++ is >60%) | < 1000 nM | CC(C)(C)c1ccc2c(n1)N1C[C@@H](CCC(c3ccc(C#N)cn3)Nc3cccc(n3)S(=O)(=O)NC2=O)CC1(C)C (some centres unmarked) [Compound 204]
++ (++ is 30-60%) | < 1000 nM | CC(C)(C)c1ccc2c(n1)N1C[C@@H](CC[C@@H](c3cccc(C#N)n3)Nc3cccc(n3)S(=O)(=O)NC2=O)CC1(C)C [Compound 210]
+++ (+++ is >60%) | < 1000 nM | CC(C)(C)c1ccc2c(n1)N1C[C@@H](CC[C@H](c3cccc(C#N)n3)Nc3cccc(n3)S(=O)(=O)NC2=O)CC1(C)C [Compound 211, 6-[(14S,17R)-8-tert-Butyl-12,12-dimethyl-2,2,4-trioxo-2λ^6-thia-3,9,11,18,23-pentaazatetracyclo[17.3.1.111,14.05,10]tetracosa-1(22),5,7,9,19(23),20-hexaen-17-yl]pyridine-2-carbonitrile]
++ (++ is 30-60%) | < 1000 nM | CC(C)(C)c1ccc2c(n1)N1C[C@@H](CCC(C3CCN(c4ncccn4)CC3)Nc3cccc(n3)S(=O)(=O)NC2=O)CC1(C)C (stereo partly drawn) [Compound 218, (14S)-8-tert-butyl-12,12-dimethyl-17-[1-(pyrimidin-2-yl)piperidin-4-yl]-2λ^6-thia-3,9,11,18,23-pentaazatetracyclo[17.3.1.111,14.05,10]tetracosa-1(23),5(10),6,8,19,21-hexaene-2,2,4-trione]
+ (+ is <30%) | > 3000 nM | COCCN1CCC2(CC1)CC(NC(=O)[C@@H]1CC[C@@H]3CN(c4nc(C(C)(C)C)ccc4C(=O)NS(=O)(=O)c4cccc(n4)N1)C(C)(C)C3)C2 [Compound 221]
+ (+ is <30%) | – | CC(C)(C)c1ccc2c(n1)N1C[C@@H](CC[C@@H](C(=O)NC3CC4(CCNCC4)C3)Nc3cccc(n3)S(=O)(=O)NC2=O)CC1(C)C [Compound 223]
+ (+ is <30%) | 1000 to 3000 nM | CC(C)(C)OC(=O)N1CCC2(CC1)CC(NC(=O)[C@@H]1CC[C@@H]3CN(c4nc(C(C)(C)C)ccc4C(=O)NS(=O)(=O)c4cccc(n4)N1)C(C)(C)C3)C2 [Compound 227]
++ (++ is 30-60%) | 1000 to 3000 nM | CN(C)CC(=O)N1CCC(C2CC[C@@H]3CN(c4nc(C(C)(C)C)ccc4C(=O)NS(=O)(=O)c4cccc(n4)N2)C(C)(C)C3)CC1 (stereo partly drawn) [Compound 236, (14S)-8-tert-butyl-17-{1-[2-(dimethylamino)acetyl]piperidin-4-yl}-12,12-dimethyl-2λ^6-thia-3,9,11,18,23-pentaazatetracyclo[17.3.1.111,14.05,10]tetracosa-1(23),5(10),6,8,19,21-hexaene-2,2,4-trione]
++ (++ is 30-60%) | < 1000 nM | CC(C)(C)c1ccc2c(n1)N1C[C@@H](CCC(C3CCN(CCC(F)(F)F)CC3)Nc3cccc(n3)S(=O)(=O)NC2=O)CC1(C)C (stereo partly drawn) [Compound 238, (14S)-8-tert-butyl-12,12-dimethyl-17-[1-(3,3,3-trifluoropropyl)piperidin-4-yl]-2λ^6-thia-3,9,11,18,23-pentaazatetracyclo[17.3.1.111,14.05,10]tetracosa-1(23),5(10),6,8,19,21-hexaene-2,2,4-trione]

SMILES | Corrector Assay A % activity | EC50
CC(=O)N1CCC(C2CC[C@@H]3CN(c4nc(C(C)(C)C)ccc4C(=O)NS(=O)(=O)c4cccc(n4)N2)C(C)(C)C3)CC1 (stereo partly drawn) [Compound 228, (14S)-17-(1-Acetylpiperidin-4-yl)-8-tert-butyl-12,12-dimethyl-2λ^6-thia-3,9,11,18,23-pentaazatetracyclo[17.3.1.111,14.05,10]tetracosa-1(23),5(10),6,8,19,21-hexaene-2,2,4-trione] | ++ (++ is 30-60%) | < 1000 nM
